Here are results for eight molecules from ChEMBL document CHEMBL3751787, “Novel chromenedione derivatives displaying inhibition of protein tyrosine phosphatase 1B (PTP1B) from Flemingia philippinensis” (Bioorg Med Chem Lett, 2016).

pIC50, pKi: −log10 of the molar value.

The target in test [1] is T1, Tyrosine-protein phosphatase non-receptor type 1 (Homo sapiens, UniProt P18031).
T1 sequence (P18031 whole entry): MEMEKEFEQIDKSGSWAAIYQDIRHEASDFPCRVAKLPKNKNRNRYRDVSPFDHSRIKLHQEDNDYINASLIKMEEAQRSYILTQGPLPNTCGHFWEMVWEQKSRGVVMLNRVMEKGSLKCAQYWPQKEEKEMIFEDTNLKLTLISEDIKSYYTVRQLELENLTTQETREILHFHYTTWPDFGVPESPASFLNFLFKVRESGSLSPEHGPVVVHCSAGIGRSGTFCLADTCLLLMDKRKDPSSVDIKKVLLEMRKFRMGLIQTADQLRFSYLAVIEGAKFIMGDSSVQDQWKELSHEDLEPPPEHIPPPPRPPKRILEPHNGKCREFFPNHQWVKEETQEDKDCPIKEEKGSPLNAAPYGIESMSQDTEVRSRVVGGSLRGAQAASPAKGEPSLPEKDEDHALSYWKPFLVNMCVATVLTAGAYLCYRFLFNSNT
Nature of the test: Inhibition of human recombinant PTP1B using p-nitrophenyl phosphate as substrate by spectrophotometric analysis.

Test [2] has as its target T1, Tyrosine-protein phosphatase non-receptor type 1. Nature of the test: Non-competitive inhibition of human recombinant PTP1B using p-nitrophenyl phosphate as substrate by spectrophotometry based Lineweaver-Burk plot.
For test [3] the target is unchanged. Kind of test: Competitive inhibition of human recombinant PTP1B using p-nitrophenyl phosphate as substrate by spectrophotometry based Lineweaver-Burk plot.

`CC(C)=CCc1c2c(c(O)c3c(=O)c(-c4ccc(O)c(O)c4)coc13)C=CC(C)(C)O2` [AURICULASIN]: in test [1], the pIC50 is 5.44. In test [2], the pKi is 5.36.

For the molecule `COc1ccc(CC/C(O)=C2\C(=O)C(CC=C(C)C)=C3OC(C)(C)C=CC3(CC=C(C)C)C2=O)cc1O` (stereo unspecified), in test [3], the pKi was 4.91. Moreover, the pIC50 in test [1] was 4.69.

In the case of `CC(C)=CCc1c(O)c(CC=C(C)C)c2occ(-c3ccc(O)cc3)c(=O)c2c1O`, in test [1], the pIC50 is 5.03. Moreover, the pKi in test [2] is 5.02.

For the molecule `CC(C)=CCc1c2c(c3occ(-c4ccc(O)cc4)c(=O)c3c1O)C=CC(C)(C)O2` [OSAJIN], the pIC50 in test [1] was 4.63. Moreover, in test [2], the pKi is 4.52.

On to `COc1cc(-c2coc3c(CC=C(C)C)c(O)c(CC=C(C)C)c(O)c3c2=O)ccc1O` [FLEMINGSIN], for which, in test [1], the pIC50 is 4.76. For the same molecule, in test [2], the negative-log Ki (pKi) was 4.72.

Take `COc1ccc(CCC(=O)C2=C(O)C(CC=C(C)C)=C3OC(C)(C)C=CC3(CC=C(C)C)C2=O)cc1O` (stereo unspecified): in test [3], the pKi was 4.75. In addition, in test [1], the pIC50 was 4.53.

On to `CC(C)=CCc1c(O)c(CC=C(C)C)c2occ(-c3ccc(O)c(O)c3)c(=O)c2c1O`, for which the negative-log IC50 (pIC50) in test [1] is 5.62. The negative-log Ki (pKi) in test [2] is 5.60.

With `COc1ccc(CCC(=O)C2=C(O)C(CC=C(C)C)=C3OC(C)(C)C=CC3(CC=C(C)C)C2=O)cc1` (stereo unspecified), the pKi in test [3] is 5.47. In addition, the negative-log IC50 (pIC50) in test [1] is 5.19.

By pIC50 is commonly meant the negative decadic logarithm of the IC50, by convention in mol/L. In general, pKi refers to −log10 of the Ki, conventionally taken in molar units.
